According to patent US7250521B2, “Method for production of Δ1-pyrrolines” (Bayer CropScience Aktiengesellschaft, priority 2001, dated 2007):

Test: logP determination by HPLC on reverse-phase column (C 18), EEC directive 79/831 Annex V.A8
Format: physicochemical
Description: In the acidic range, the determination is carried out at pH 2.3 using the mobile phases 0.1% aqueous phosphoric acid and acetonitrile; linear gradient from 10% acetonitrile to 90% acetonitrile.
In the neutral range, the determination is carried out at pH 7.5 using the mobile phases 0.01 molar aqueous phosphate buffer solution and acetonitrile; linear gradient from 10% acetonitrile to 90% acetonitrile.

[1] = reverse-phase HPLC column (C 18), pH 2.3, acidic range, pH 2.3; 0.1% aqueous phosphoric acid/acetonitrile gradient; 43° C.; values marked a)
[2] = reverse-phase HPLC column (C 18), pH 7.5, neutral range, pH 7.5; 0.01 molar aqueous phosphate buffer/acetonitrile gradient; 43° C.; values marked b)

Row | chromatographic logP [1] | chromatographic logP [2] | SMILES
1 | 2.98 | 4.67 | Cc1ccc(C2CCC(c3ccccc3Cl)=N2)cc1Cl (centres unmarked) [Example 54]
2 | 2.09 |  | CC(C)c1ccc(C2CCC(c3ccccc3F)=N2)cc1 (centres unmarked) [Example 22]
3 | 2.57 |  | CC(C)(C)OC(=O)N1C(=O)CCC1c1ccc(F)cc1 (centres unmarked) [III-21]
4 | 1.72 |  | O=C1CCC(c2ccc(Br)cc2)N1 (centres unmarked) [Example V-16]
5 | 5.7 |  | Cc1cccc(C)c1C1=NC(c2ccc(-c3ccc(OC(F)(F)F)cc3)cc2)CC1 (centres unmarked) [Example 6]
6 | 2.94 |  | COc1ccc(C2=NC(c3ccc(-c4ccc(OC(F)(F)F)cc4)cc3)CC2)cc1 (centres unmarked) [Example 116]
7 | 3.83 |  | Cc1ccc(C2CCC(=O)N2C(=O)OC(C)(C)C)c(Cl)c1 (centres unmarked) [III-9]
8 | 2.73 | 4.2 | Fc1ccc(C2CCC(c3ccc(C(F)(F)F)cc3)=N2)cc1 (centres unmarked) [Example 64]
9 | 3.31 | 5.8 | CCOc1cc(C(C)(C)C)ccc1C1CCC(c2ccccc2Br)=N1 (centres unmarked) [Example 57]
10 | 1.21 |  | O=C1CCC(c2ccccc2)N1 (centres unmarked) [Example V-15]
11 | 2.93 |  | CC(C)(C)OC(=O)N1C(=O)CCC1c1ccc(Cl)cc1 (centres unmarked) [III-13]
12 | 3.62 |  | O=C1CCC(c2ccc(-c3ccc(OCc4ccc(Cl)cc4)cc3)cc2)N1 (centres unmarked) [Example V-22]
13 | 1.96 | 4.04 | Cc1ccc(C2CCC(c3ccccc3Cl)=N2)cc1 (centres unmarked) [Example 74]
14 | 3.54 |  | CC(C)(C)OC(=O)N1C(=O)CCC1c1ccc(Cl)cc1Cl (centres unmarked) [III-10]
15 | 3.2 |  | Cc1ccc(C2CCC(=O)N2C(=O)OC(C)(C)C)c(C)c1 (centres unmarked) [III-17]
16 | 1.12 | 3.34 | Fc1ccc(C2CCC(c3ccccc3)=N2)cc1 (centres unmarked) [Example 32]
17 | 3.47 | 5.33 | Clc1ccccc1C1=NC(c2ccc(CCc3ccccc3)cc2)CC1 (centres unmarked) [Example 70]
18 | 2.74 |  | CC(C)c1ccc(C2CCC(c3ccccc3Cl)=N2)cc1 (centres unmarked) [Example 21]
19 | 2.76 |  | O=C1CCC(c2ccc(-c3ccc(Br)cc3)cc2)N1 (centres unmarked) [Example V-28]
20 | 4.4 |  | CCOc1cc(C(C)(C)C)ccc1C1CCC(=O)N1C(=O)OC(C)(C)C (centres unmarked) [III-28]
21 | 3.36 | 4.69 | Cc1ccc(C2CCC(c3ccccc3Br)=N2)cc1Cl (centres unmarked) [Example 62]
22 | 2 |  | O=C1CCC(c2ccc(OC(F)(F)F)cc2)N1 (centres unmarked) [Example V-1, 5-[4-(trifluoromethoxy)phenyl]-2-pyrrolidinone]
23 | 4.57 |  | Cc1cc(-c2ccc(C3CCC(c4c(F)cccc4F)=N3)cc2)ccc1OC(F)(F)F (centres unmarked) [Example 112]
24 | 3.01 | 5.78 | CCOc1cc(C(C)(C)C)ccc1C1CCC(c2ccccc2Cl)=N1 (centres unmarked) [Example 52]
25 | 4.23 | 6.03 | Brc1ccccc1C1=NC(c2ccc(C3CCCCC3)cc2)CC1 (centres unmarked) [Example 77]
26 | 1.79 | 3.5 | COc1ccc(C2CCC(c3ccccc3Br)=N2)cc1 (centres unmarked) [Example 42]

Row | chromatographic logP [1] | chromatographic logP [2] | SMILES
27 | 1.21 | 3.32 | COc1ccc(C2CCC(c3ccccc3F)=N2)cc1 (centres unmarked) [Example 87]
28 | 5.05 |  | Fc1ccc(F)c(C2=NC(c3ccc(-c4ccc(OC(F)(F)F)cc4)cc3)CC2)c1F (centres unmarked) [Example 118]
29 | 3.61 |  | FC(F)(F)Oc1ccc(C2CCC(c3ccccc3Br)=N2)cc1 (centres unmarked) [Example 1, 5-(2-bromophenyl)-2-[4-(trifluoro-methoxy)phenyl]-3,4-dihydro-2H-pyrrole]
30 | 1.66 | 3.47 | COc1ccc(C2CCC(c3ccccc3Cl)=N2)cc1 (centres unmarked) [Example 86]
31 | 3.45 | 5.84 | Fc1ccccc1C1=NC(c2ccc(-c3ccc(SC(F)(F)F)cc3)cc2)CC1 (centres unmarked) [Example 17]
32 | 2.09 | 4.51 | Cc1cc(Cl)ccc1C1CCC(c2ccccc2F)=N1 (centres unmarked) [Example 39]
33 | 5.03 |  | CC(C)(C)OC(=O)N1C(=O)CCC1c1ccc(-c2ccc(OCc3ccc(OC(F)(F)F)cc3)cc2)cc1 (centres unmarked) [III-25]
34 | 1.64 | 3.61 | Clc1ccccc1C1=NC(c2ccccc2)CC1 (centres unmarked) [Example 91]
35 | 4.11 |  | CC(C)(C)OC(=O)N1C(=O)CCC1c1ccc(CCc2ccccc2)cc1 (centres unmarked) [III-19]
36 | 3.9 |  | FC(F)(F)c1ccccc1C1=NC(c2ccc(Br)cc2)CC1 (centres unmarked) [Example 2]
37 | 1.62 | 3.88 | CSc1ccc(C2CCC(c3ccccc3F)=N2)cc1 (centres unmarked) [Example 85]
38 | 3.98 |  | Fc1cccc(F)c1C1=NC(c2ccc(-c3ccc(Br)cc3)cc2)CC1 (centres unmarked) [Example 113]
39 |  | 3.03 | CC(C)(C)OC(=O)N1C(=O)C(C(=O)c2ccccc2C(F)(F)F)CC1c1ccc(Br)cc1 (centres unmarked) [II-3]
40 | 2.11 | 5.01 | Cc1ccccc1C1=NC(c2ccc(C(C)C)cc2)CC1 (centres unmarked) [Example 25]
41 | 3.51 | 5.95 | FC(F)(F)Oc1ccc(-c2ccc(C3CCC(c4ccc(Br)cc4)=N3)cc2)cc1 (centres unmarked) [Example 101]
42 | 5.05 |  | Fc1cc(F)c(C2=NC(c3ccc(-c4ccc(SC(F)(F)F)cc4)cc3)CC2)c(F)c1 (centres unmarked) [Example 114]
43 | 3.83 |  | O=C1CCC(c2ccc(-c3ccc(OCc4ccc(OC(F)(F)F)cc4)cc3)cc2)N1 (centres unmarked) [Example V-23]
44 | 3.83 | 4.75 | Clc1ccc(C2CCC(c3ccccc3Cl)=N2)cc1Cl (centres unmarked) [Example 45]
45 | 1.32 |  | O=C1CCC(c2ccc(F)cc2)N1 (centres unmarked) [Example V-17]
46 | 3.78 | 3.95 | Fc1ccc(C2CCC(c3c(Cl)cccc3Cl)=N2)cc1 (centres unmarked) [Example 37]
47 | 2.41 |  | Fc1cccc(F)c1C1=NC(c2ccc(OCC(F)(F)F)cc2)CC1 (centres unmarked) [Example 9]
48 | 2.39 |  | CCOC(=O)Oc1ccc(-c2ccc(C3CCC(=O)N3)cc2)cc1 (centres unmarked) [Example V-20]
49 | 2.19 | 4 | CSc1ccc(C2CCC(c3ccccc3Cl)=N2)cc1 (centres unmarked) [Example 55]
50 | 3.84 | 5.56 | Fc1cccc(F)c1C1=NC(c2ccc(C3CCCCC3)cc2)CC1 (centres unmarked) [Example 78]
51 | 2.5 | 4.03 | CSc1ccc(C2CCC(c3ccccc3Br)=N2)cc1 (centres unmarked) [Example 58]
52 |  | 4.6 | CC(C)(C)OC(=O)N1C(=O)C(C(=O)c2ccc(Cl)c(Cl)c2)CC1c1ccccc1 (centres unmarked) [II-6]

Row | chromatographic logP [1] | chromatographic logP [2] | SMILES
53 | 2.39 | 4.74 | Cc1ccc(C2CCC(c3ccccc3F)=N2)c(Cl)c1 (centres unmarked) [Example 50]
54 | 2.6 | 4.23 | Clc1ccc(C2CCC(c3ccccc3Cl)=N2)cc1 (centres unmarked) [Example 82]
55 |  | 4.07 | Clc1cccc(C2=NC(c3ccccc3)CC2)c1Cl (centres unmarked) [Example 69]
56 | 2.33 | 5.06 | CC(C)(C)c1ccc(C2CCC(c3ccccc3F)=N2)cc1 (centres unmarked) [Example 24]
57 | 1.92 |  | Cc1ccc(C2CCC(=O)N2)c(Cl)c1 (centres unmarked) [Example V-7]
58 | 4.83 |  | FC(F)(F)Oc1ccc(-c2ccc(C3CCC(c4ccccc4OC(F)(F)F)=N3)cc2)cc1 (centres unmarked) [Example 7]
59 | 4.67 | 5.94 | FC(F)(F)Sc1ccc(-c2ccc(C3CCC(c4ccccc4Cl)=N3)cc2)cc1 (centres unmarked) [Example 16]
60 | 2.99 |  | Clc1ccccc1C1=NC(c2cccc(Br)c2)CC1 (centres unmarked) [Example 15]
61 | 4.13 |  | CC(C)(C)OC(=O)N1C(=O)C(C(=O)c2ccc(Cl)cc2)CC1c1ccc(F)cc1 (centres unmarked) [II-2]
62 | 1.73 | 3.97 | Clc1cccc(C2=NC(c3ccccc3)CC2)c1 (centres unmarked) [Example 48]
63 | 2.23 | 4.31 | Fc1ccc(C2CCC(c3ccc(OC(F)(F)F)cc3)=N2)cc1 (centres unmarked) [Example 65]
64 | 3.25 | 6.1 | Cc1ccccc1C1=NC(c2ccc(-c3ccc(SC(F)(F)F)cc3)cc2)CC1 (centres unmarked) [Example 18]
65 | 3.01 | 3.89 | Fc1ccc(C2CCC(c3ccccc3Br)=N2)cc1F (centres unmarked) [Example 56]
66 | 4.66 | 5.2 | Clc1ccc(C2CCC(c3ccccc3Cl)=N2)c(Cl)c1 (centres unmarked) [Example 46]
67 | 1.43 |  | Clc1ccc(C2=NC(c3ccccc3)CC2)cc1 (centres unmarked) [Example 90]
68 | 2.67 |  | CC(C)(C)OC(=O)N1C(=O)CCC1c1ccc(F)c(F)c1 (centres unmarked) [III-12]
69 |  | 3.35 | CC(C)(C)OC(=O)N1C(=O)C(C(=O)c2ccccc2Br)CC1c1ccc(OC(F)(F)F)cc1 (centres unmarked) [II-1, tert-butyl 3-(2-bromobenzoyl)-2-oxo-5-[4-(trifluoromethoxy)phenyl]-1-pyrrolidinecarboxylate]
70 | 0.59 |  | Oc1ccc(C2CCC(c3ccccc3F)=N2)cc1 (centres unmarked) [Example 104]
71 |  | 4.13 | Fc1cccc(F)c1C1=NC(c2ccc(OC(F)(F)F)cc2)CC1 (centres unmarked) [Example 73]
72 | 3.29 |  | CC(C)(C)OC(=O)N1C(=O)CCC1c1ccc(Cl)c(Cl)c1 (centres unmarked) [III-11]
73 | 3.05 |  | CC(C)(C)c1ccc(C2CCC(c3ccccc3Cl)=N2)cc1 (centres unmarked) [Example 20]
74 | 1.73 | 4.14 | Fc1ccc(C2CCC(c3ccc(Br)cc3)=N2)cc1 (centres unmarked) [Example 100]
75 | 4.52 | 5.56 | FC(F)(F)Oc1ccc(-c2ccc(C3CCC(c4ccccc4Br)=N3)cc2)cc1 (centres unmarked) [Example 102]
76 | 2.55 | 4.46 | Cc1ccc(C2CCC(c3ccccc3Br)=N2)c(C)c1 (centres unmarked) [Example 80]
77 | 2.55 | 5.23 | COc1ccccc1C1=NC(c2ccc(-c3ccc(OC(F)(F)F)cc3)cc2)CC1 (centres unmarked) [Example 5]
